Where “and” joins values, the source holds several entries; their conditions need not be identical. Equal entries are not always repeated.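 1) Cells in 96-well plates. 2) Compound, 48 h, 5 concentrations. 3) Linear interpolation between surrounding doses. 4) Unreached endpoint = highest concentration. Abbreviation: GI50, concentration required for 50% inhibition of growth. TGI is the concentration that stops growth completely.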
Legend:
Assay in all cases: NCI-60 cell line screen, 48 h
RPMI-8226 leukemia = test system: RPMI-8226 leukemia
HCC-2998 colon = test system: HCC-2998 colon
EKVX NSCLC = test system: EKVX NSCLC
SR leukemia = test system: SR leukemia
HOP-92 NSCLC = test system: HOP-92 NSCLC
HOP-62 NSCLC = test system: HOP-62 NSCLC
SK-MEL-2 melanoma = test system: SK-MEL-2 melanoma
OVCAR-4 ovarian = test system: OVCAR-4 ovarian
HT29 colon = test system: HT29 colon
ACHN renal = test system: ACHN renal

Row | Structure (SMILES) | TGI (RPMI-8226 leukemia) | TGI (HCC-2998 colon) | TGI (EKVX NSCLC) | TGI (SR leukemia) | TGI (HOP-92 NSCLC) | TGI (HOP-62 NSCLC) | TGI (SK-MEL-2 melanoma) | TGI (OVCAR-4 ovarian) | TGI (HT29 colon) | TGI (ACHN renal) | GI50 (RPMI-8226 leukemia) | GI50 (HCC-2998 colon) | GI50 (EKVX NSCLC) | GI50 (SR leukemia) | GI50 (HOP-92 NSCLC) | GI50 (HOP-62 NSCLC) | GI50 (SK-MEL-2 melanoma) | GI50 (OVCAR-4 ovarian) | GI50 (HT29 colon) | GI50 (ACHN renal)
1 | Cc1c2c(C#N)nccc2c(C)c2c1c1ccccc1n2Cc1ccccc1 | > 100 µM | > 100 µM | > 100 µM | > 100 µM | > 100 µM | > 100 µM | > 100 µM | > 100 µM | > 100 µM | > 100 µM | – | – | – | – | – | – | – | – | – | –
2 | COc1cc(NS(C)(=O)=O)ccc1Nc1c2ccccc2nc2c1[nH]c1ccc(NC3OC(CO)C(O)C(O)C3O)cc12 (stereo not given) | 3.85 µM | 0.809 µM | 4.98 µM | > 100 µM | 1.04 µM | 0.208 µM | 1.36 µM | 4.66 µM | 0.938 µM | 0.137 µM | – | – | – | – | – | – | – | – | – | –
3 | CC(=O)c1sc(Nc2nnc(-c3ccc(-c4nnc(Nc5nc(C)c(C(C)=O)s5)o4)cc3)o2)nc1C | > 100 µM | > 100 µM | > 100 µM | > 100 µM | > 100 µM | > 100 µM | – | > 100 µM | > 100 µM | > 100 µM | – | – | – | – | – | – | – | – | – | –
4 | COc1c(OC[C@H](O)CN2CCOCC2)ccc2c3n(c(=NC(=O)c4cccnc4C)nc12)CCN3 | > 50 µM | > 50 µM | > 50 µM | > 50 µM | 10.1 µM | > 50 µM | > 50 µM | > 50 µM | > 50 µM | > 50 µM | > 50 µM | 1.9 µM | 1.05 µM | > 50 µM | 0.0637 µM | 1.41 µM | > 50 µM | > 50 µM | 0.217 µM | 0.411 µM
5 | CC1CN(C(=O)CN2CCC(CCCCN(C)C)CC2)c2ccccc2NC1=O (stereo not given) | > 100 µM | > 100 µM | – | > 100 µM | > 100 µM | > 100 µM | – | > 100 µM | > 100 µM | > 100 µM | – | – | – | – | – | – | – | – | – | –
6 | COc1cccc2c1C(=O)c1c(O)c3c(c(O)c1C2=O)C[C@](O)(C(=O)CO)C[C@H]3O[C@@H]1C[C@@H](NC(=O)CCCCCN(C)C2(c3ccc(F)cc3)CC3CCC2C3)[C@H](O)[C@@H](C)O1 (stereo not given in full) | 2.25 µM | 3.37 µM | 17.7 µM | 1.64 µM | 12.5 µM | 10 µM | 2.52 µM | 2.69 µM | 1.5 µM | 6.66 µM | 0.899 µM | 1.03 µM | 7.85 µM | 0.223 µM | 5.36 µM | 2.03 µM | 1.18 µM | 1.09 µM | 0.676 µM | 1.75 µM
7 | CC(=O)OC12C=CC(=O)N1c1ccccc1C(=O)O2 (stereo not given) | > 100 µM | > 100 µM | > 100 µM | > 100 µM | > 100 µM | > 100 µM | > 100 µM | > 100 µM | > 100 µM | > 100 µM | – | – | – | – | – | – | – | – | – | –
8 | CCSc1ncnc2c1ncn2C1OC(CO)C(O)C1O (stereo not given) | > 100 µM | 7.35 µM | > 100 µM | > 100 µM | 12.2 µM | > 100 µM | > 100 µM | > 100 µM | > 100 µM | > 100 µM | 4.5 µM | 0.203 µM | 0.419 µM | 25.3 µM | 1.98 µM | 1.47 µM | 24.1 µM | 9.87 µM | 0.229 µM | 0.425 µM
9 | CCCC(=O)Nc1cc2c3c(c1)CCCN3CCC2 | > 10 µM | > 10 µM | – | > 10 µM | > 10 µM | > 10 µM | – | > 10 µM | > 10 µM | > 10 µM | – | – | – | – | – | – | – | – | – | –
10 | Nc1c(C(=O)Nc2ccncc2)sc2nc3c(cc12)CCCCCCCC3 | 2.71 µM | 1.63 µM | 1.63 µM | 50 µM | 1.49 µM | – | 1.79 µM | 1.6 µM | 1.79 µM | 1.6 µM | 1.23 µM | 0.9 µM | 0.851 µM | 1.62 µM | 0.761 µM | – | 0.975 µM | 0.861 µM | 0.969 µM | 0.889 µM
11 | CCCNC(=S)NNC(=O)CSc1nc(-c2ccccc2)c(-c2ccccc2)[nH]1 | > 100 µM | – | 89.7 µM | 93.4 µM | 97.8 µM | > 100 µM | > 100 µM | > 100 µM | > 100 µM | > 100 µM | – | – | – | – | – | – | – | – | – | –
12 | CNCC#Cc1c(F)ccc2c1/C(=C/c1[nH]ccc1OC)C(=O)N2 | 1.47 µM | 1.63 µM | – | 0.513 µM | 1.96 µM | 2.68 µM | 0.369 µM | 3.2 µM | 1.82 µM | 2.64 µM | 0.322 µM | 0.398 µM | – | 0.0715 µM | 0.669 µM | 0.307 µM | 0.0799 µM | 0.495 µM | 0.133 µM | 0.053 µM
13 | COc1cc(-c2cc(-c3cc4c([nH]c5ccccc54)c(-c4cc(OC)c(OC)c(OC)c4)n3)cc(-c3ccccc3)n2)cc(OC)c1OC | 18.5 µM | > 100 µM | – | > 100 µM | 6.25 µM | > 100 µM | 6.36 µM | 74.2 µM | 25.5 µM | > 100 µM | 2.88 µM | 7.3 µM | – | 3.56 µM | 1.45 µM | 4.53 µM | 2.58 µM | 5.31 µM | 4.03 µM | 4.57 µM
14 | Oc1cccnc1[Se] | > 100 µM | – | 80.2 µM | > 100 µM | > 100 µM | 64.7 µM | > 100 µM | – | > 100 µM | > 100 µM | – | – | – | – | – | – | – | – | – | –
15 | COc1cc(NCc2ccc3nc(N)nc(N)c3c2C)cc(OC)c1OC (tested in a mixture with another compound) | – | – | 26.6 µM | > 44.4 µM | – | – | 42.3 µM and 55.1 µM | 99.8 µM | 41.9 µM | 32.8 µM | – | 0.00957 µM | – | – | 0.0233 µM | – | 0.339 µM | 0.15 µM | – | 0.0736 µM and 0.025 µM
16 | COc1ccc(-c2nn(-c3ccc(NC(=O)c4ccc(Cl)c(Cl)c4)cc3)cc2-c2ccncc2)cc1Cl | > 11.6 µM | > 50 µM | > 50 µM | > 50 µM | > 50 µM | 17 µM | – | > 50 µM | 3.22 µM | > 50 µM | 0.831 µM | 1.85 µM | 3.25 µM | 2.29 µM | 7.65 µM | 1.62 µM | – | > 14.1 µM | 1.21 µM | > 13.2 µM

Source: PubChem BioAssay (NCI)
